{"source": "paper PMC7538598", "about": "(Scientific Reports, 2020)", "key": {"GlyR": {"tested_on": "GlyR", "conditions": "full agonist, maximal current responses; cited from earlier work"}, "α1-GFP GlyR": {"biological_target": "T1, α1-GFP GlyR (Homo sapiens, UniProt P23415)", "T1 construct": "made in house; host or cells: Xenopus laevis oocytes injected with cRNA; total solubilized membranes in SMA nanodiscs", "T1 sequence (P23415 29-457)": "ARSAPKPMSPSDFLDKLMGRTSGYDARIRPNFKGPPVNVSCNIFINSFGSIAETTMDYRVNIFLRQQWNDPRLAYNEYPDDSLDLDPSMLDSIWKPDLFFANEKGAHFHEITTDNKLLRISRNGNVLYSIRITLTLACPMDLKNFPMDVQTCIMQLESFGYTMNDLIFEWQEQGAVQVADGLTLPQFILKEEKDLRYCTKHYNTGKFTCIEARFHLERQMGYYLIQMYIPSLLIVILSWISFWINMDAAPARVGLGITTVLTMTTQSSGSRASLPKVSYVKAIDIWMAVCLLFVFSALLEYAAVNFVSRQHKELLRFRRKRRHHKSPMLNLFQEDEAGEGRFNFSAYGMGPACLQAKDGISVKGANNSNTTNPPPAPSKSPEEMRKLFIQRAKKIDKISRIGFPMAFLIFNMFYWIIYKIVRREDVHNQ", "experiment": "MST of α1-GFP GlyR SMA-copolymer nanodiscs (total solubilized membranes) from X. laevis oocytes", "type": "binding", "conditions": "mean ± SEM, read-out: cEC50 (MST)", "protocol": "cRNA was synthesized using the AmpliCap-Max T7 High Yield Message Maker Kit (Cellscript, Madison, WI, USA). Therefore GFP-GlyR α1 in pCDNA3.1(+) was linearized with NotI. Oozytes were surgically taken from female X. laevis after anesthesia with 0.1% Tricaine in water. For SMA-copolymer solubilization, 300–400 oocytes were injected with 50 ng in a volume of 50.6 nl of cRNA. After injection the oocytes were incubated in ND-96 solution (96 mM NaCl, 2 mM KCl, 1 mM CaCl2, 1 mM MgCl2, 5 mM HEPES, pH 7.4) at 18 °C for 1–2 days."}, "α1 GlyR": {"biological_target": "T2, α1 GlyR (Homo sapiens, UniProt P23415)", "T2 construct": "GFP (N); expressed in transfected cells; host or cells: Xenopus laevis oocytes (cRNA injection)", "T2 sequence (P23415 29-457)": "T1 sequence (P23415 29-457)", "experiment": "Two-electrode voltage-clamp whole-cell current recordings in X. laevis oocytes expressing α1 GlyR", "type": "cell-based"}}, "data": [{"smiles": "NCC(=O)O", "note": "[glycine]", "values": [{"measurement": "opening times in single-channel recordings", "setting": "GlyR", "value": "95–98%"}]}, {"smiles": "NCCS(=O)(=O)O", "note": "[taurine]", "values": [{"measurement": "EC50", "setting": "α1-GFP GlyR", "value": "474 ± 66.1", "unit": "µM"}, {"measurement": "EC50", "setting": "α1 GlyR; α1 GlyR expressed in X. laevis oocytes, clamped at −70 mV, mean ± SEM, read-out: aEC50 (electrophysiology)", "value": "843 ± 16", "unit": "µM"}, {"measurement": "maximal current compared to glycine", "setting": "α1 GlyR; α1 GlyR in X. laevis oocytes, normalized to maximum glycine currents, n = 3", "value": 61, "unit": "%"}]}]}
